From PMC10610256, “Development and Preclinical Evaluation of [^68Ga]BMSH as a New Potent Positron Emission Tomography Tracer for Imaging Programmed Death-Ligand 1 Expression” (Pharmaceuticals, 2023) come the findings set out here.

One data set addresses T1, PD-L1 (Homo sapiens, UniProt Q9NZQ7).
T1 construct: expressed in transfected cells; host or cells: A549 cells stably transduced with hPD-L1 by lentivirus (A549-hPDL1)
Description: Competitive cell-binding experiment against [^68Ga]BMSH. The following applies: A549-hPDL1 cells, 60 min.

For data set [1], the system named is A549-hPDL1 and A549 tumors. Description: Micro-PET imaging, A549-hPDL1 versus A549 tumors. It counts as in vivo, BALB/c nude mice. The following applies: 60 min post-injection. The method, then:
For biodistribution and micro-PET imaging studies of [^68Ga]BMSH and [^18F]FDG, male BALB/c nude mice were implanted subcutaneously with 1–5 × 10^6 A549-hPDL1 cells and A549 cells behind right armpit. Mice were imaged or used in biodistribution studies when the tumor xenografts reached 5–10 mm in diameter. Dynamic micro-PET imaging studies were conducted in tumor-bearing nude mice (A549-hPDL1 and A549, n = 3 in each group) using the Madiclab PSA146 PET/CT/FMT instrument (Linyi, China). The images were reconstructed using a three-dimensional ordered-subset expectation maximum (OSEM) algorithm and were converted to the percentage of injected dose per gram of tissue (%ID/g) images. Tumor-bearing mice were intravenously injected with [^68Ga]BMSH (7.4 MBq/mouse) and [^18F]FDG (5.55 MBq/mouse), respectively. For the blocking experiment, the A549-hPDL1 tumor-bearing mice were co-injected with NOTA-BMSH (100 µg/mouse) and [^68Ga]BMSH. For data analysis, the regions of interest (ROIs) were manually drawn over the tumor and major organs on decay-corrected whole-body coronal images using PMOD software (version 4.3, PMOD Technologies Ltd., Zurich, Switzerland).

T1 sequence (Q9NZQ7 19-290): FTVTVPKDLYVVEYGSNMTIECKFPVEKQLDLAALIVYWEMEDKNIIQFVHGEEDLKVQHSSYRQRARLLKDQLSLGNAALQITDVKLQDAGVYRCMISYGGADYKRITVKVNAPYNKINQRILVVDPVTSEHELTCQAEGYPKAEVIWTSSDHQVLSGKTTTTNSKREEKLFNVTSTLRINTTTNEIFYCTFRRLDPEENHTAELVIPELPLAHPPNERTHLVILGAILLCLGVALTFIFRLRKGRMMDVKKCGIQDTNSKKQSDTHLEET

A word on the IC50: it is the midpoint of a concentration-inhibition curve. A lower IC50 goes with greater potency. Turning to `CC(=O)NC1C(NC(=O)[C@H](CCC(=O)N[C@@H](CCC(=O)O)C(=O)N[C@@H](CC(=O)O)C(=O)NCCOCCOCC(=O)NCCNC(=O)[C@@H](CO)CNc2cc(C)c(OCc3cccc(-c4ccc5c(c4)OCCO5)c3C)cc2OCc2cccc(C#N)c2)NC(=O)COCCOCCNC(=O)CN2CCN(CC(=O)O)CCN(CC(=O)O)CC2)OC(CO)C(O)C1O` (some centres unmarked) [NOTA-BMSH], the IC50 on PD-L1 turned out to be 449 nM.
For the compound [^18F]FDG, the “A549-hPDL1 tumor/A549 tumor uptake ratio” value in data set [1] is 1.08.
